Values after ≈ are worked out from the molar mass of the structure shown. Read-outs that look alike come from different tables or passages of the source.
How the values were obtained:
M. morganii isolates = test: microbe, parasite or virus in culture; assay type: cell-based; conditions: Morganella morganii
P. pennerii isolates = test: organism not typed; assay type: cell-based, Proteus pennerii
[1] = assay type: in vivo, human
ethanol treated spores = assay type: cell-based; conditions: lysozyme addition to the plates (2 ug/ml); Sweet B or M2GSC media (FIG. 14)
[2] = 10 patients with recurrent C. difficile treated with ethanol treated spore preparations

Compound | % of Patients OTU Engrafts [1, 2] [%] | also measured
C[C@@H](O)[C@H]1C(=O)N2C(C(=O)O)=C(SCCN=CN)C[C@H]12 [imipenem] |  | MIC (M. morganii isolates): 2 to 4 µg/mL (≈ 6.68 to 13.4 µM); MIC (P. pennerii isolates): 4 to 8 µg/mL (≈ 13.4 to 26.7 µM)
Bacteroides_fragilis | 30 | 
Clostridium_bartlettii | 70 | 
Clostridium_butyricum |  | % of Patients OTU Engrafts ([1]; human, in vivo): 20%
Clostridium_clostridioforme | 60 | 
Clostridium_disporicum | 30 | 
Clostridium_mayombei | 50 | 
Clostridium_symbiosum | 50 | 
lysozyme |  | effect on germination (ethanol treated spores): small effect

Reference: patent US10064901B2, “Compositions and methods” (priority 2013, dated 2018)
